From patent publication US4545982A, “Pyranone compounds and skin-lightening cosmetic preparations or local demelanizing agents containing the same” (Yakurigaku Chuo Kenkyusho, priority 1982, dated 1985)

Tests used:
[1] = test system: triturated solution of a shaved skin of a rat; assay: Enzymatic hydrolysis of acyl compounds by rat skin homogenate (ferric chloride coloring); format: in vitro ADME; set-up: key: +: light wine color; ++: deep wine color; +++: dark wine color; --: no coloration; ±: indistinct coloration; conditions: 0.05M substrate emulsion, 37° C., 1 hr
Description: (§1) (1) Substrate solution: A solution containing 2% polyvinyl alcohol in M/15 phosphate buffer solution (pH 7.0) was prepared. The respective acyl compounds were added to the solution in a concentration of 0.05M and homogenized in a homogenizer to give emulsions.
(§2) (2) Enzymatic solution: 30 mg of purified bacterial lipase was dissolved in 100 ml of water. As an organic crude enzymatic solution, there was used a triturated solution of a shaved skin and pancreas of a rat weighing about 200 g.
(§3) (3) The compositions were as follows:
(§4) The composition was incubated at 37° C. for 1 hr, and the reaction was stopped by 5% metaphosphoric acid. 0.5 ml of ferric chloride reagent (0.1% aqueous solution) was added to 5 ml of the supernatant liquid after the centrifugal precipitation to observe the coloring (wine color) thereof.

[2] = test system: triturated solution of pancreas of a rat; assay: Enzymatic hydrolysis of acyl compounds by rat pancreas homogenate (ferric chloride coloring); format: in vitro ADME; set-up: key: +: light wine color; ++: deep wine color; +++: dark wine color; --: no coloration; ±: indistinct coloration; conditions: 0.05M substrate emulsion, 37° C., 1 hr
Description: as §1, §2, §3, §4

[3] = test system: purified bacterial lipase; assay: Enzymatic hydrolysis of acyl compounds by purified bacterial lipase (ferric chloride coloring); format: in vitro ADME; set-up: key: +: light wine color; ++: deep wine color; +++: dark wine color; --: no coloration; ±: indistinct coloration; conditions: 0.05M substrate emulsion, 37° C., 1 hr
Description: as §1, §2, §3, §4

[4] = test system: melasma on human face; assay: Action on the melanization in the human skin (melasma, ointment application); format: in vivo; conditions: 3 times a day, 3 months, 10 volunteers
Description: Action of 3-hydroxy-4(H)-pyran-4-one and acyl derivatives thereof on the melanization in the human skin.
The test substance was mixed and dissolved in a hydrophilic ointment according to the Japanese Pharmacopoeia and applied to a melasma on one side of each human face 3 times a day. In the control, only the hydrophilic ointment was applied to a melasma on the other side of the human face in the similar way.

[5] = Germicidal action and antibiotic-like action
[6] = Mutagenicity
[7] = Reducing action; format: physicochemical
[8] = test system: tyrosinase; assay: Inhibitory action on tyrosinase activity (absorbance at 475 mμ with time); format: biochemical; conditions: 40 μg in 0.9 ml test solution, L-tyrosine, pH 6.8, 37° C., absorbance at 475 mμ with time (FIG. 1)
Description: To a test tube were added 0.9 ml of a test solution, containing 40 μg of pyranone described above, which solution was obtained by adding the pyranone to 30% aqueous solution of propylene glycol; 1 ml of L-tyrosine solution (0.3 mg/ml); and 1 ml McIlvaine's buffer solution (pH 6.8), and the mixture was incubated at 37° C. for 10 minutes. 0.1 ml of a tyrosinase solution (1 mg/ml) was then added to the incubated mixture and stirred thoroughly. The absorbance at 475 mμ of the mixture was immediately measured by a spectrophotometer with time. As a control, the absorbance at 475 mμ of a 30% aqueous solution of propylene glycol instead of the above test solution was measured with time.
FIG. 1 is a graph to illustrate the effect described above, and agreement of the line showing the absorbance in the case of 3-hydroxy-4(H)-pyran-4-one with the abscissa (time) of the graph clearly indicates the remarkable effect of the 3-hydroxy-4(H)-pyran-4-one.

[9] = test system: tyrosinase; assay: Inhibitory action of pretreated (hydrolyzed) 3-acyloxy-4(H)-pyran-4-one on tyrosinase activity; format: biochemical; conditions: 1.0% solution pretreated by hydrolysis at pH 11.0 or 2.0, 70° C., 30 minutes; L-tyrosine, pH 6.8, 37° C., absorbance at 475 mμ
Description: 3-Acetoxy-4(H)-pyran-4-one was dissolved in ethanol, and the solution was adjusted to pH 6.0 with succinic acid or potassium carbonate to give a 1.0% 3-acetoxy-4(H)-pyran-4-one solution.
As the pretreatment, two samples (each 10 ml) were taken from the solution. To the two samples were added 1% Na2 CO3 and 0.01% HCl to adjust the pH to 11.0 and 2.0, respectively. The adjusted samples were hydrolyzed by heating at 70° C. with stirring for 30 minutes.
To a test tube were added 1 ml of a L-tyrosine solution (0.3 mg/ml), 1 ml of McIlvaine's buffer solution (pH 6.8) and 0.9 ml of the 3-acetoxy-4(H)-pyran-4-one solution pretreated as described above. The mixture was incubated at 37° C. for 10 minutes, and 0.1 ml of a tyrosinase solution (1 mg/ml) was added thereto and stirred thoroughly. The absorbance at 475 mμ was immediately determined by a spectrophotometer with time. On the other hand, the absorbance of water was determined similarly with time as a control.

Reducing action [7] | SMILES | Ratio of formation of 3-hydroxy-4(H)--pyran-4-one, Homogenate Rat's skin [1] | Ratio of formation of 3-hydroxy-4(H)--pyran-4-one, Homogenate Rat's pancreas [2] | Ratio of formation of 3-hydroxy-4(H)--pyran-4-one, Bacterial lipase (purified) [3] | Results: Effective (number of volunteers) ([4]; 0.5% in hydrophilic ointment) | Results: Ineffective (number of volunteers) ([4]; 0.5% in hydrophilic ointment) | Results: Remarkably effective (number of volunteers) ([4]; 0.5% in hydrophilic ointment) | Results: Effective (number of volunteers) ([4]; 1% in hydrophilic ointment) | Results: Ineffective (number of volunteers) ([4]; 1% in hydrophilic ointment) | Results: Remarkably effective (number of volunteers) ([4]; 1% in hydrophilic ointment) | Results: Effective (number of volunteers) ([4]; 2% in hydrophilic ointment) | Results: Ineffective (number of volunteers) ([4]; 2% in hydrophilic ointment) | Results: Remarkably effective (number of volunteers) ([4]; 2% in hydrophilic ointment) | Germicidal action and antibiotic-like action [5] | Mutagenicity [6] | Inhibitory action on tyrosinase activity [8] | Inhibitory action on tyrosinase activity [9]
– | CCCCCCCCCCCCCCCC(=O)Oc1coccc1=O [3-palmitoyloxy-4(H)--pyran-4-one, 3-palmitoyloxy-4(H)-pyran-4-one] | ++ | ++ | ± | 2 | 3 | 5 | 4 | 0 | 6 | 2 | 0 | 8 | – | – | – | –
weak reducing action | O=c1ccocc1O [3-hydroxy-4(H)-pyran-4-one] | – | – | – | 3 | 2 | 5 | 2 | 0 | 8 | – | – | – | deficient in germicidal action and antibiotic-like action | no mutagenicity | stronger inhibitory action on the tyrosinase activity than 3-hydroxy-chromone (chromonol) and kojic acid, and a far stronger inhibitory action than vitamin C | –
– | CC(=O)Oc1coccc1=O [3-acetoxy-4(H)-pyran-4-one, 3-Acetoxy-4(H)-pyran-4-one] | +++ | +++ | + | – | – | – | – | – | – | – | – | – | – | – | – | Results similar to those of the 3-hydroxy-4(H)-pyran-4-one
